From patent US20030109529A1, “Use of s-triazines for treating Apicomplexan parasitic infections” (priority 1999, published 2003)

Assays:
[1] = test system: mefloquine resistant P. falciparum (Mfl res); experiment: In vitro RBC culture, mefloquine resistant P. falciparum; type: cell-based, Plasmodium falciparum; conditions: for percentage of RBCs infected with mefloquine-resistant P. falciparum: Example 3, 48 hrs or 96 hrs after treatment; for Red Blood Cell Infection Rate: mefloquine-resistant, 96 hrs of treatment, 0.02 μM, control 24
Experimental: (§1) Briefly, a red blood cell suspension at a malarial (wild type Plasmodium falciparum) infection rate of approximately 1% was added to each well of a 96 well micro titer plate. The test compound was added to the cultures at final concentrations of 2.0, 0.2 or 0.02 μM. and incubated in an environment of 5% CO2, 5% O2 and 90% N2 at 37° C. Every 24 hrs the dish was removed, 100 μl of spent medium removed and 100 μl of fresh, compound containing-medium was added back to each well. This procedure was repeated daily.
(§2) At 48 hrs and again at 96 hrs, blood smears were made from each well and 500 Red Blood Cells (RBCs) were counted and inspected for malarial infection. The percent infection rate was then determined for each experimental condition tested.
The procedure set forth in Example 1 is utilized for testing the effectiveness of mefloquine and atrazine against mefloquine-resistant P. falciparum.
(§3) Malaria parasite (P. falciparum) was grown in culture as described previously. At 48 hours and 96 hours of treatment, red blood cells were taken from culture and the percent red blood cells infected with the parasite was determined by microscopic examination.

[2] = test system: wild type Plasmodium falciparum; experiment: In vitro red blood cell culture infected with wild type Plasmodium falciparum, percent RBCs infected; type: cell-based; conditions: for effectiveness compared with chloroquine (text to Table 2): 2.0-0.02 μM
Experimental: The in vitro method used to test the anti-malarial effectiveness of various s-triazines was adapted from Trager, 1994, Methods in Cell Biology Vol 45:7-26.
as §1, §2, §3
The data in Table 2 represent percent red blood cell (RBC) infection rate at 48 hrs of treatment with the antimalarial test compound. Control cultures were 35% RBC infected.

[3] = test system: chloroquine resistant P. falciparum (Clq res); experiment: In vitro RBC culture, chloroquine resistant P. falciparum; type: cell-based, Plasmodium falciparum; conditions: for percentage of RBCs infected with chloroquine-resistant P. falciparum: Example 2, 48 hrs or 96 hrs after treatment; for Red Blood Cell Infection Rate: chloroquine-resistant, 96 hrs of treatment, 0.02 μM, control 28
[4] = test system: multi-drug resistant P. falciparum (MDR); experiment: In vitro RBC culture, multi-drug resistant P. falciparum; type: cell-based, Plasmodium falciparum; conditions: for Red Blood Cell Infection Rate: multidrug-resistant, 96 hrs of treatment, 0.02 μM, control 25
Experimental: as §1, §2, §3

[5] = test system: antifolate-resistant P. falciparum; experiment: In vitro RBC culture, antifolate-resistant P. falciparum; type: cell-based, Plasmodium falciparum; conditions: Example 4, 48 hrs or 96 hrs after treatment
Experimental: as §1, §2
The procedure set forth in Example 1 is utilized for testing the effectiveness of triazine and atrazine against antifolate-resistant P. falciparum.

[6] = test system: wild type rodent malaria (Plasmodium berghi); experiment: In vitro evaluation against wild type rodent malaria; type: cell-based; conditions: Experiment 5, 48 hrs or 96 hrs after treatment
Experimental: as §1, §2
The procedure set forth in Example 1 is utilized for testing compounds against wild type rodent malaria (Plasmodium berghi).

Plasmodium berghi = experiment: In vivo evaluation against Plasmodium berghi in Lewis rats, intravenous treatment; parameters: species or system rat; conditions: 20 mg/kg I.V., 24 and 48 hrs
Experimental: In vivo testing was performed using juvenile female Lewis rats. Rats were inoculated intraperitoneally with 30,000,000 Plasmodium berghi infected RBCs. Rats were bled daily from the tail vein and, when parasitemia reached 1-3%, therapy was begun.
Blood smears were obtained at 24 and 48 hrs. The percent RBCs infected was then calculated after counting and inspecting 500 RBCs for each rat.

Toxoplasma gondii = experiment: In vitro anti-Toxoplasma test in human foreskin fibroblasts; type: cell-based; conditions: 24 hrs after treatment
Experimental: Human foreskin fibroblasts are grown to confluency in 12 well plates. Next, Toxoplasma gondii is added to the plates. The resultant cultures are treated with the test compound 24 hrs later. […]

wild type yeast = experiment: Yeast assay for antifolate activity, wild type yeast; type: cell-based, Saccharomyces cerevisiae; conditions: 48 hours of treatment
[7] = test system: yeast transfected with malarial dihydrofolate reductase (folate sensitive); experiment: Yeast assay for antifolate activity, folate sensitive yeast; type: cell-based, Saccharomyces cerevisiae; conditions: 48 hours of treatment
Experimental: (§4) We have established a in vitro yeast assay model for determining sensitivity to antifolate anti-malarials.
(§5) Saccharomyces cerevisiae was grown in culture and after 48 hours of treatment as described below the growth of the yeast was determined. Control (i.e., yeast grown with no treatment) is considered to be 100% growth. Drug treatment was then related to the controls as a percent of control growth. S. cerevisiae types tested included wild type yeast, yeast made sensitive to antifolate antimalarials by transfecting yeast with malarial dihydrofolate reductase (folate sensitive or folate sen), yeast transfected but not sensitive to antifolate antimalarials (folate insensitive or folate insen).

[8] = test system: yeast transfected but not sensitive to antifolate antimalarials (folate insensitive); experiment: Yeast assay for antifolate activity, folate insensitive yeast; type: cell-based, Saccharomyces cerevisiae; conditions: 48 hours of treatment
Experimental: as §4, §5

calf DHFR = biological target: T1, calf DHFR (Bos taurus, UniProt P00376); experiment: DHFR enzyme assay, calf liver homogenate; type: biochemical
T1 construct: tested using homogenates of calf liver, rat liver and cultures of P. falciparum; from tissue; host or cells: calf liver homogenate
T1 sequence (P00376 1-187): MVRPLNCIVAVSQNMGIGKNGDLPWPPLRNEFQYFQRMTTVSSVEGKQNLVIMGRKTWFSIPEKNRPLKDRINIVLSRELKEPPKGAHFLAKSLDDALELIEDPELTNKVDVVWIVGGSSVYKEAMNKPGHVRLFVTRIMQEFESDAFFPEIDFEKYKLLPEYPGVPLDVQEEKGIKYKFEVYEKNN
Experimental: (§6) The ability of atrazine to inhibit dihydrofolate reductase (DHFR) is also tested using homogenates of calf liver, rat liver and cultures of P. falciparum. Atrazine's ability to inhibit mammalian DHFR (i.e., calf DHFR and rat DHFR) as well as malarial DHFR is determined using standard enzyme assays and the Michaelis-Menton analysis. The Michaelis-Menton hypothesis states that a complex is formed between an enzyme and its substrate and that the complex then dissociates to yield free enzyme and the reaction products, with the rate of dissociation determining the overall rate of substrate-product conversion. For a more complete review of the Michaelis constant, see Benet et al., 1996, Pharmacokinetics, Chapter 1:3-27, In Goodman & Gilman's The Pharmacological Basis of Therapeutics, Ninth Edition, McGraw-Hill; and Ross, 1996, Pharmacodynamics, Chapter 2:29-41, Id.

rat DHFR = biological target: T2, rat DHFR (Rattus norvegicus, UniProt Q920D2); experiment: DHFR enzyme assay, rat liver homogenate; type: biochemical
T2 construct: tested using homogenates of calf liver, rat liver and cultures of P. falciparum; from tissue; host or cells: rat liver homogenate
T2 sequence (Q920D2 1-187): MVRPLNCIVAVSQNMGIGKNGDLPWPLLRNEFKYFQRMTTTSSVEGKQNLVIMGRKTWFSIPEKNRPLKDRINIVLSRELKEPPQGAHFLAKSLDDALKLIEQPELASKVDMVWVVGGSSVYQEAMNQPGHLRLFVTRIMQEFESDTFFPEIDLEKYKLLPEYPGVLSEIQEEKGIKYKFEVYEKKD
Experimental: as §6

malarial DHFR = experiment: DHFR enzyme assay, cultures of P. falciparum; type: biochemical
Experimental: as §6

P. berghei = experiment: In vivo efficacy against P. berghei in rats, single oral dose; parameters: species or system rat; conditions: single oral dose (Chloroquine 20 mg/kg, Atrazine 100 mg/kg) 4 h after inoculation; for Parasitemia Day 4: ethanol control 24%; for Parasitemia Day 11: ethanol control 42%
Experimental: Rats weighing 60-70 gms were inoculated with P. berghei infected rat red blood cells. […] Blood was obtained 4 days and 11 days later and parasitemia assessed using light microscopy of blood smears. The percent parasitemia (i.e., the presence of parasites in the blood) was then determined for each group and the data are summarized in the table below: […]

P. falciparum = experiment: Isobologram analysis of chloroquine and atrazine in vitro against P. falciparum; type: cell-based, Plasmodium falciparum; conditions: each drug alone at its ID50, or combinations of the stated fractions of each ID50
Experimental: Drugs can interact in additive, antagonistic or synergistic manner. See Berenbaum, J. Infect. Dis., 137:122-130, 1978. The isobologram assay permits determination of the type of interaction that occurs between drugs of interest. The ID50, or […], for both drugs was calculated.
Next, the drugs were tested in vitro at the ID50 for each drug alone and various combinations of drugs as described below:
These combinations of drugs were tested in vitro against P. falciparum and the data analyzed.

[9] = test system: wild type Plasmodium falciparum; experiment: In vitro red blood cell culture infected with wild type Plasmodium falciparum, percent RBCs infected; type: cell-based; conditions: 0.006 μM to 0.4 μM
[10] = rats given a single injection; cited from earlier work
[11] = 48 hrs of treatment, 0.02 μM, control 35%
[12] = 48 hrs of treatment, 0.2 μM, control 35%
[13] = 48 hrs of treatment, 2.0 μM, control 35%
[14] = wild type, 96 hrs of treatment, 0.02 μM, control 18

OC(c1cc(C(F)(F)F)nc2c(C(F)(F)F)cccc12)C1CCCCN1 (stereo not shown) [mefloquine, reference compound]
percentage of RBCs infected with mefloquine-resistant P. falciparum [1]: significantly higher level of RBCs being infected

CCNc1nc(Cl)nc(NCC)n1 [simazine, 2-chloro-4,6-di(ethylamino)-s-triazine]
Red Blood Cell Infection Rate [2, 11]: 3%
Red Blood Cell Infection Rate [2, 12]: 0%
Red Blood Cell Infection Rate [2, 13]: 0%
effectiveness compared with chloroquine (text to Table 2) ([2]; 48 hrs of treatment): substantially similar in effectiveness as chloroquine

CCNc1nc(Cl)nc(NC(C)C)n1 [atrazine, 2-chloro-4-ethylamino-6-isopropylamino-s-triazine]
Red Blood Cell Infection Rate [2, 11]: 3%
Red Blood Cell Infection Rate [2, 12]: 0%
Red Blood Cell Infection Rate [2, 13]: 0%
effectiveness compared with chloroquine (text to Table 2) ([2]; 48 hrs of treatment): substantially similar in effectiveness as chloroquine
percentage of RBCs infected with P. falciparum (FIGS. 1-4) ([2]; low concentrations, 48 hrs or 96 hrs after treatment): relatively low percentage of the RBCs being infected
Red Blood Cell Infection Rate [2, 14]: 3%
percentage of RBCs infected with mefloquine-resistant P. falciparum [1]: relatively low percentage of the RBCs being infected
effectiveness against resistant parasite (FIGS. 8, 9) ([1]; mefloquine resistant, 48 and 96 hours): effective against several classic forms of resistance
Red Blood Cell Infection Rate [1]: 3%
percentage of RBCs infected with chloroquine-resistant P. falciparum [3]: relatively low percentage of the RBCs being infected
effectiveness against resistant parasite (FIGS. 8, 9) ([3]; chloroquine resistant, 48 and 96 hours): effective against several classic forms of resistance
Red Blood Cell Infection Rate [3]: 4%
effectiveness against resistant parasite (FIGS. 8, 9) ([4]; multi-drug resistant, 48 and 96 hours): effective against several classic forms of resistance
Red Blood Cell Infection Rate [4]: 3%
percentage of RBCs infected with antifolate-resistant P. falciparum [5]: relatively low percentage of the RBCs being infected
percentage of RBCs infected with P. berghi [6]: relatively low percentage of the RBCs being infected
in vivo percentage of RBCs infected with P. berghi compared to non-treated controls (FIG. 6) (Plasmodium berghi): disease dramatically reduced
percentage of fibroblast cells infected with T. gondii (Toxoplasma gondii): relatively low percentage of the cells being infected
yeast growth (FIG. 7) (wild type yeast): Neither chloroquine (Clq) nor atrazine affected growth
yeast growth (FIG. 7) [7]: Neither chloroquine (Clq) nor atrazine affected growth
yeast growth (FIG. 7) [8]: Neither chloroquine (Clq) nor atrazine affected growth
inhibition of DHFR (calf DHFR): does not inhibit DHFR
inhibition of DHFR (rat DHFR): does not inhibit DHFR
inhibition of DHFR (malarial DHFR): does not inhibit DHFR
Parasitemia Day 4 (P. berghei): 6.0%
Parasitemia Day 11 (P. berghei): 10.5%
Percent Growth Inhibition (P. falciparum): 58%
effectiveness compared with chloroquine (FIG. 5) [9]: as effective and potent as chloroquine
LD50 [10]: ~3000 mg/kg

c1ncncn1 [triazine]
percentage of RBCs infected with antifolate-resistant P. falciparum [5]: significantly higher level of RBCs being infected

CCNc1nc(NC(C)C)nc(SC)n1 [ametryn, 2-ethylamino-4-isopropylamino-6-thiomethoxy-s-triazine]
Red Blood Cell Infection Rate [2, 11]: 20%
Red Blood Cell Infection Rate [2, 12]: 11%
Red Blood Cell Infection Rate [2, 13]: 10%
effectiveness compared with chloroquine (text to Table 2) ([2]; 48 hrs of treatment): less effective

CCN(CC)CCCC(C)Nc1ccnc2cc(Cl)ccc12 (stereo not shown) [chloroquine, reference compound]
Red Blood Cell Infection Rate [2, 11]: 4%
Red Blood Cell Infection Rate [2, 12]: 0%
Red Blood Cell Infection Rate [2, 13]: 0%
Red Blood Cell Infection Rate [2, 14]: 3%
Red Blood Cell Infection Rate [1]: 13%
percentage of RBCs infected with chloroquine-resistant P. falciparum [3]: significantly higher level of RBCs being infected
Red Blood Cell Infection Rate [3]: 28%
Red Blood Cell Infection Rate [4]: 22%
in vivo percentage of RBCs infected with P. berghi compared to non-treated controls (FIG. 6) (Plasmodium berghi): disease dramatically reduced
yeast growth (FIG. 7) [7]: Neither chloroquine (Clq) nor atrazine affected growth
yeast growth (FIG. 7) [8]: Neither chloroquine (Clq) nor atrazine affected growth
Parasitemia Day 4 (P. berghei): 5.8%
Parasitemia Day 11 (P. berghei): 11%
Percent Growth Inhibition (P. falciparum): 60%

CCNc1nc(Cl)nc(NC(C)(C)C#N)n1 [cyanazine, 2-[[4-chloro-6-(ethylamino)-s-triazin-2-yl]amino]-2-methyl propionitrile]
Red Blood Cell Infection Rate [2, 11]: 18%
Red Blood Cell Infection Rate [2, 12]: 17%
Red Blood Cell Infection Rate [2, 13]: 16%
effectiveness compared with chloroquine (text to Table 2) ([2]; 48 hrs of treatment): less effective

CC(C)Nc1nc(Cl)nc(NC(C)C)n1 [propazine, 2-chloro-4,6-di(isopropylamino)-s-triazine]
Red Blood Cell Infection Rate [2, 11]: 5%
Red Blood Cell Infection Rate [2, 12]: 1%
Red Blood Cell Infection Rate [2, 13]: 1%
effectiveness compared with chloroquine (text to Table 2) ([2]; 48 hrs of treatment): substantially similar in effectiveness as chloroquine
